The record followed here is EP4782448A1, “SUBSTITUTED PYRIDOTRIAZOLE COMPOUND, AND PREPARATION METHOD THEREFOR AND USE THEREOF” (Origiant Pharmaceutical Co., Ltd., priority 2023, dated 2025).

One assay deals with T1, RIPK1 Kinase (Homo sapiens, UniProt Q13546).
T1 construct: purchased Eurofins (Kinase Profiler service)
T1 sequence (Q13546 1-671): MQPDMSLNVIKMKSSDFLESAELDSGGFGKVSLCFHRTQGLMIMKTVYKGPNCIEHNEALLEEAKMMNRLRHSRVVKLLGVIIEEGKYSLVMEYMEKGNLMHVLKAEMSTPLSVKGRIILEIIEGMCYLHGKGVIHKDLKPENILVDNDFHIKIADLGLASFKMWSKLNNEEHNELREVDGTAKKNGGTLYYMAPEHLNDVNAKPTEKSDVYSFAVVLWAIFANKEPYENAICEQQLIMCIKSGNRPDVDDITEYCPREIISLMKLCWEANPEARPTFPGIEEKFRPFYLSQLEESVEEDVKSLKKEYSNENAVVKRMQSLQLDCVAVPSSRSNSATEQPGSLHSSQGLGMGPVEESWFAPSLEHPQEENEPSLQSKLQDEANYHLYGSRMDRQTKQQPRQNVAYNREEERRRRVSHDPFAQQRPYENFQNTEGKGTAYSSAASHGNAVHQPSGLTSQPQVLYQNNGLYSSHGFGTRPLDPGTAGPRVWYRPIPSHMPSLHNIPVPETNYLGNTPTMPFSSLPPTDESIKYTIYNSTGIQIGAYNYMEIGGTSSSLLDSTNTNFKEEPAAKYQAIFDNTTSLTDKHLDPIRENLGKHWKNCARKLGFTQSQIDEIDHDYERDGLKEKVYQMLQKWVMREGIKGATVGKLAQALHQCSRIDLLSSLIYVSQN
As to the kind of experiment: biochemical.

The next assay deals with HT-29 cells. As to the kind of experiment: In vitro assay for protection of HT-29 cells from necroptosis (TNFα/Smac mimetic/Z-VAD-FMK induction, CCK8 readout). Type of assay: cell-based. The following applies: TNFα/Smac mimetic/Z-VAD-FMK for 24 h; inhibition of necroptosis; read-out: HT-29 (EC50).

Where two headings read alike, the source gives them in different places. Where only a bound is given, the exact number is not on record here.

Description for RIPK1 Kinase: This assay was completed using the Kinase Profiler service provided by Eurofins. The experimental method was as follows: The small molecule compound to be tested (0.001-10 µM) and the protein kinase to be tested were incubated with a buffer containing a substrate, 10 mM magnesium acetate, and [γ-^33P-ATP]. The reaction was initiated by adding a Mg\ATPmix. After incubation at room temperature for a period of time, a 3% phosphate solution was added to the buffer to terminate the reaction. Subsequently, 10 µL of the reaction mixture was quantitatively pipetted and dropped onto P30 filter paper. The paper was washed three times with 75 mM phosphate solution and once with methanol. After drying, scintillation fluid was added for scinticounting. The inhibitory activity of the compound was expressed as the half-maximal inhibitory concentration (IC50). The IC50 values were derived by fitting the inhibition rates corresponding to the respective concentration gradients.

At RIPK1 Kinase, `C[C@H](NC(=O)c1cn(C)c2ccc(-c3ccn4nc(NC(=O)CN5CCC(O)CC5)nc4c3)cc12)c1ccc(F)cc1` [Compound 6] came in with an IC50 of 10 to 100 nM.
At RIPK1 Kinase, `C[C@H](NC(=O)c1cn(C)c2ccc(-c3ccn4nc(NC(=O)C(=O)N5CCOCC5)nc4c3)cc12)c1ccc(F)cc1` [Compound 9] came in with an IC50 of 10 to 100 nM.
For the compound `C[C@H](NC(=O)c1cn(C)c2ccc(-c3ccn4nc(NC(=O)[C@@H]5CCC(=O)N5)nc4c3)cc12)c1ccc(F)cc1` [Compound 14], the IC50 against RIPK1 Kinase lay in the range of 10 to 100 nM.
With `C[C@H](NC(=O)c1cn(C)c2ccc(-c3ccn4nc(NC(=O)CN5CCOC(C)(C)C5)nc4c3)cc12)c1ccc(F)cc1` [Compound 18], the IC50 against RIPK1 Kinase lay in the range of 10 to 100 nM.
Compound `C[C@H](NC(=O)c1cn(C)c2ccc(-c3ccn4nc(NC(=O)CN5CCC6(CC5)OCCO6)nc4c3)cc12)c1ccc(F)cc1` [Compound 27] registered an IC50 on RIPK1 Kinase of 10 to 100 nM.
With `C[C@H](NC(=O)c1cn(C)c2ccc(-c3ccn4nc(NC(=O)CN5CC(C)(C#N)C5)nc4c3)cc12)c1ccc(F)cc1` [Compound 29], at RIPK1 Kinase, the IC50 fell in the range of 10 to 100 nM.
Same read-out and setting: the value for `C[C@H](NC(=O)c1cn(C)c2ccc(-c3ccn4nc(NC(=O)CN5CCC(N6CCOCC6)CC5)nc4c3)cc12)c1ccc(F)cc1` [Compound 38] was 10 to 100 nM; that for `C[C@H](NC(=O)c1cn(C)c2ccc(-c3ccn4nc(NC(=O)CN5C[C@H]6C[C@@H]5CO6)nc4c3)cc12)c1ccc(F)cc1` [Compound 39] was 10 to 100 nM.
On the same count and under the same terms, to `C[C@H](NC(=O)c1cn(C)c2ccc(-c3ccn4nc(NC(=O)CN(C)C)nc4c3)cc12)c1ccc(F)cc1` [Compound 40] belongs 10 to 100 nM; to `C[C@H](NC(=O)c1cn(C)c2ccc(-c3ccn4nc(NC(=O)CN5CC(F)(F)C5)nc4c3)cc12)c1ccc(F)cc1` [Compound 42], 10 to 100 nM.
Still for that read-out and setting: the value for `C[C@@H]1CN(CC(=O)Nc2nc3cc(-c4ccc5c(c4)c(C(=O)N[C@@H](C)c4ccc(F)cc4)cn5C)ccn3n2)C[C@H](C)O1` [Compound 46] was 10 to 100 nM; that for `C[C@H](NC(=O)c1cn(C)c2ccc(-c3ccn4nc(NC(=O)CN5CCN(C)CC5)nc4c3)cc12)c1ccc(F)cc1` [Compound 51] was 10 to 100 nM.
At RIPK1 Kinase, `C[C@H](NC(=O)c1cn(C)c2ccc(-c3ccn4nc(NC(=O)CN5CCOC[C@@H]5C)nc4c3)cc12)c1ccc(F)cc1` [Compound 60] yielded an IC50 of 10 to 100 nM.
As for `COCCNCC(=O)Nc1nc2cc(-c3ccc4c(c3)c(C(=O)N[C@@H](C)c3ccc(F)cc3)cn4C)ccn2n1` [Compound 68], the IC50 against RIPK1 Kinase is 10 to 100 nM.
On RIPK1 Kinase, `C[C@H](NC(=O)c1cn(C)c2ccc(-c3ccn4nc(NC(=O)CN5CC6CCC(C5)O6)nc4c3)cc12)c1ccc(F)cc1` [Compound 71] had a half-inhibitory concentration (IC50) of 10 to 100 nM.
As for `C[C@H](NC(=O)c1cn(C)c2ccc(-c3ccn4nc(NC(=O)C5CCOC5)nc4c3)cc12)c1ccc(F)cc1` (stereo partly shown) [Compound 106], the IC50 on RIPK1 Kinase was in the range of 10 to 100 nM.
Same read-out and setting: to `Cn1cc(C(=O)N[C@H]2CCc3ccc(F)cc32)c2cc(-c3ccn4nc(NC(=O)[C@H]5CCCO5)nc4c3)ccc21` [Compound 121] belongs 10 to 100 nM; to `Cn1cc(C(=O)Nc2nc3cc(-c4ccc5c(c4)c(C(=O)N[C@H]4CCc6ccc(F)cc64)cn5C)ccn3n2)cn1` [Compound 122], 100 to 1000 nM; to `Cn1cc(C(=O)N[C@H]2CCc3cc(C#N)ccc32)c2cc(-c3ccn4nc(NC(=O)C5CC5)nc4c3)ccc21` [Compound 130], 10 to 100 nM.
As to `CC(=O)Nc1nc2cc(-c3ccc4c(c3)c(C(=O)N[C@H]3CCCc5cc(F)ccc53)cn4C)ccn2n1` [Compound 138], the IC50 on RIPK1 Kinase (compound 0.001-10 µM, read-out: RIPK1(IC50)) fell in the range of 10 to 100 nM.
With `Cn1cc(C(=O)N2CC(F)CC2c2ccc(F)cc2)c2cc(-c3ccn4nc(NC(=O)C5CC5)nc4c3)ccc21` (stereo not shown) [Compound 156], the IC50 at RIPK1 Kinase was 10 to 100 nM.
Same read-out and setting: to `Cn1cc(C(=O)N[C@H](c2ccc(F)cc2)C(F)F)c2cc(-c3ccn4nc(NC(=O)C5CC5)nc4c3)ccc21` [Compound 161] belongs 1 to 10 nM.
Take `CC(C(=O)Nc1cn(C)c2ccc(-c3ccn4nc(NC(=O)[C@H]5CCCO5)nc4c3)cc12)c1ccc(F)cc1` (stereo partly shown) [Compound 178]: in the assay with HT-29 cells, the EC50 lay within 100 to 1000 nM.
In the case of `CC(C(=O)Nc1cn(C)c2ccc(-c3ccn4nc(NC(=O)[C@H]5CCCO5)nc4c3)cc12)c1ccc(F)cc1` (stereo partly shown) [Compound 179], the EC50 in the assay with HT-29 cells lay within 100 to 1000 nM.
On the same count and under the same terms, the value for `CC(C(=O)Nc1nn(C)c2ccc(-c3ccn4nc(NC(=O)CN(C)C)nc4c3)cc12)c1ccc(F)cc1` (stereo not shown) [Compound 180] was 1000 to 10000 nM; that for `CC(C(=O)Nc1nn(C)c2ccc(-c3ccn4nc(NC(=O)c5cnn(C)c5)nc4c3)cc12)c1ccc(F)cc1` (stereo not shown) [Compound 181] was 1000 to 10000 nM.
Take `CC(C(=O)Nc1nn(C)c2ccc(-c3ccn4nc(NC(=O)C5CC5)nc4c3)cc12)c1ccc(F)cc1` (stereo not shown) [Compound 182]: the IC50 against RIPK1 Kinase lay in the range of 100 to 1000 nM.
Regarding `Cn1cc(C(=O)N[C@@H](CF)c2cccc(F)c2)c2cc(-c3ccn4nc(NC(=O)[C@H]5CCCO5)nc4c3)ccc21` [Compound 183], the EC50 with HT-29 cells was less than 1 nM.
On to `Cn1cc(C(=O)N[C@@H]2C[C@H]2c2ccc(F)c(F)c2)c2cc(-c3ccn4nc(NC(=O)[C@H]5CCCO5)nc4c3)ccc21` [Compound 184], for which the EC50 in the assay on HT-29 cells fell in the range of 100 to 1000 nM.
Consider `Cn1cc(C(=O)N2CCC[C@H]2c2ccc(F)cc2)c2cc(-c3ccn4nc(NC(=O)C5CCOC5)nc4c3)ccc21` (stereo partly shown) [Compound 186], for which the EC50 in the assay with HT-29 cells was less than 1 nM.
On the same count and under the same terms, the value for `Cn1cc(C(=O)Nc2nc3cc(-c4ccc5c(c4)c(C(=O)N[C@@H](CF)c4ccc(F)cc4)nn5C)ccn3n2)cn1` [Compound 187] was less than 1 nM; that for `Cn1nc(C(=O)N[C@@H](CF)c2ccc(F)cc2)c2cc(-c3ccn4nc(NC(=O)C5CCOC5)nc4c3)ccc21` (stereo partly shown) [Compound 188] was less than 1 nM; that for `Cn1nc(C(=O)N[C@@H](CF)c2ccc(F)cc2)c2cc(-c3ccn4nc(NC(=O)N5CCOCC5)nc4c3)ccc21` [Compound 189] was less than 1 nM.
In the case of `Cn1nc(C(=O)N[C@@H](CF)c2ccc(F)cc2)c2cc(-c3ccn4nc(NC(=O)C5CC5)nc4c3)ccc21` [Compound 190], the EC50 in the assay on HT-29 cells is less than 1 nM.
With `C[C@H](NC(=O)c1nn(C)c2ccc(-c3ccn4nc(NC(=O)C5CC5)nc4c3)cc12)c1ccc(F)cc1` [Compound 192], the EC50 with HT-29 cells was less than 1 nM.
For `C[C@H](NC(=O)c1nn(C)c2ccc(-c3ccn4nc(NC(=O)[C@H]5CCCO5)nc4c3)cc12)c1ccc(F)cc1` [Compound 193], the EC50 in the assay with HT-29 cells was less than 1 nM.
`C[C@H](NC(=O)c1nn(C)c2ccc(-c3ccn4nc(NC(=O)N5CCOCC5)nc4c3)cc12)c1ccc(F)cc1` [Compound 195]: the EC50 with HT-29 cells is less than 1 nM.
`C[C@H](NC(=O)c1nn(C)c2ccc(-c3ccn4nc(NC(=O)CN5CCOCC5)nc4c3)cc12)c1ccc(F)cc1` [Compound 196] gave an IC50 on RIPK1 Kinase of 10 to 100 nM.
In the case of `CC[C@H](NC(=O)c1cn(C)c2ccc(-c3ccn4nc(NC(=O)CN5CCOCC5)nc4c3)cc12)c1ccc(F)cc1` [Compound 197], the EC50 with HT-29 cells was less than 1 nM.
Still for that read-out and setting: to `CCn1cc(C(=O)N[C@@H](CF)c2ccc(F)cc2)c2cc(-c3ccn4nc(NC(=O)N5CCOCC5)nc4c3)ccc21` [Compound 200] belongs less than 1 nM; to `CN(C(=O)c1cn(C)c2ccc(-c3ccn4nc(NC(=O)C5CC5)nc4c3)cc12)[C@H]1CCc2cc(F)ccc21` [Compound 205], 1 to 10 nM.
On to `CC(c1ccc(F)cc1)n1cnc(-c2cn(C)c3ccc(-c4ccn5nc(NC(=O)c6cnn(C)c6)nc5c4)cc23)n1` (stereo not shown) [Compound 208], for which, in the assay with HT-29 cells, the EC50 lay within 100 to 1000 nM.
Turning to `CC(c1ccc(F)cc1)n1cnc(-c2cn(C)c3ccc(-c4ccn5nc(NC(=O)C6CC6F)nc5c4)cc23)n1` (stereo not shown) [Compound 209], the EC50 with HT-29 cells was in the range of 100 to 1000 nM.
In the case of `Cn1cc(C2=NC(c3ccc(F)cc3)CO2)c2cc(-c3ccn4nc(NC(=O)C5CC5F)nc4c3)ccc21` (stereo not shown) [Compound 211], the EC50 in the assay with HT-29 cells lay within 10 to 100 nM.
On to `Cn1cc(C2=NC(c3ccc(F)cc3)CO2)c2cc(-c3ccn4nc(NC(=O)C5CC5)nc4c3)ccc21` (stereo not shown) [Compound 212], for which the EC50 in the assay on HT-29 cells fell in the range of 10 to 100 nM.
Regarding `Cn1cc(C(=O)Nc2nc3cc(-c4ccc5c(c4)c(C4=NC(c6ccc(F)cc6)CO4)cn5C)ccn3n2)cn1` (stereo not shown) [Compound 213], the EC50 in the assay on HT-29 cells lay in the range of 10 to 100 nM.
On to `COCCn1cc(C(=O)N[C@@H](CF)c2ccc(F)cc2)c2cc(-c3ccn4nc(NC(=O)N5CCOCC5)nc4c3)ccc21` [Compound 214], for which the EC50 in the assay on HT-29 cells is 10 to 100 nM.
As for `COCCn1cc(C(=O)N[C@@H](CF)c2ccc(F)cc2)c2cc(-c3ccn4nc(NC(=O)CC#N)nc4c3)ccc21` [Compound 215], the EC50 in the assay with HT-29 cells was 10 to 100 nM.
The same measure, in the same setting: to `COC(C)C(=O)Nc1nc2cc(-c3ccc4c(c3)c(-c3nncn3C(C)c3ccc(F)cc3)cn4C)ccn2n1` (stereo not shown) [Compound 216] belongs 10 to 100 nM.
Turning to `CC(c1ccc(F)cc1)n1cnnc1-c1cn(C)c2ccc(-c3ccn4nc(NC(=O)C5CCOC5)nc4c3)cc12` (stereo not shown) [Compound 217], the EC50 in the assay with HT-29 cells was in the range of 10 to 100 nM.
As for `C[C@H](NC(=O)c1cn(C)c2ccc(-c3ccn4nc(N5CCOCC5=O)nc4c3)cc12)c1ccc(F)cc1` [Compound 218], the EC50 in the assay on HT-29 cells was 10 to 100 nM.
For the compound `C[C@H](NC(=O)c1cn(C)c2ccc(-c3ccn4nc(N5CCOCC5)nc4c3)cc12)c1ccc(F)cc1` [Compound 219], the EC50 in the assay on HT-29 cells lay in the range of 1 to 10 nM.
